Assay results taken from ChEMBL document CHEMBL1833865, “Oleanane-type triterpene saponins from the bark of Aralia elata and their NF-κB inhibition and PPAR activation signal pathway” (Bioorg Med Chem Lett, 2011).
Activity calls are given as the source filed them. No cut-off for these calls is given here.

Legend:
Format in all cases: cell-based
HepG2 [1] = assay: Inhibition of NF-kappaB activation expressed in human HepG2 cells assessed as reduction in TNFalpha-induced COX2 mRNA expression preincubated 1 hr before TNFalpha challenge measured after 6 hrs by RT-PCR analysis
[2] = Inhibition of NF-kappaB activation expressed in TNFalpha-stimulated human HepG2 cells co-transfected with […] plasmid pretreated for 1 hr before TNFalpha challenge measured after 24 hrs by luciferase reporter gene assay
HepG2 [3] = assay: Cytotoxicity against human HepG2 cells assessed as cell viability at 10 uM after 24 hrs by MTS assay; conditions: hepg2, 24 h
[4] = molecular target: T1, Peroxisome proliferator-activated receptor alpha (Homo sapiens) (UniProt Q07869); assay: Transactivation of Gal4-fused PPARalpha ligand binding domain expressed in human HepG2 cells co-transfected with pFR-Luc and pRL-CMV at 0.1 to 10 uM after 20 hrs by dual-luciferase reporter gene assay
T1 sequence (whole entry): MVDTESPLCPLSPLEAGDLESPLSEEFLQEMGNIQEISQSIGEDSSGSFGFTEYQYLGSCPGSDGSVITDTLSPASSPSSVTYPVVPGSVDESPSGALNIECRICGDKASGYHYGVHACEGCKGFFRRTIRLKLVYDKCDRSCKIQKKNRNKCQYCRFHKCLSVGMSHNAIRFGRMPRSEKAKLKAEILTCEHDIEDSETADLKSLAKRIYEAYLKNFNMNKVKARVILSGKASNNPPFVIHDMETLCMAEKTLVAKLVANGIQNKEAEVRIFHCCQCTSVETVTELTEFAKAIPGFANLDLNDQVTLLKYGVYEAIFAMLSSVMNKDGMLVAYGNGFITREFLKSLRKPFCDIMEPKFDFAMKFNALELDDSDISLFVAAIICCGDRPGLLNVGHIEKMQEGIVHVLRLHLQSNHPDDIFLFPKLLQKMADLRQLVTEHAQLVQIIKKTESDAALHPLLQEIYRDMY

HepG2 [5] = assay: Inhibition of NFkappaB activation expressed in human HepG2 cells assessed as reduction in TNF-alpha-induced iNOS mRNA expression preincubated 1 hr before TNFalpha challenge measured after 6 hrs by RT-PCR analysis
[6] = molecular target: T2, Peroxisome proliferator-activated receptor gamma (Homo sapiens) (UniProt P37231); assay: Transactivation of Gal4-fused PPARgamma ligand binding domain expressed in human HepG2 cells co-transfected with pFR-Luc and pRL-CMV at 0.1 to 10 uM after 20 hrs by dual-luciferase reporter gene assay
T2 sequence (whole entry): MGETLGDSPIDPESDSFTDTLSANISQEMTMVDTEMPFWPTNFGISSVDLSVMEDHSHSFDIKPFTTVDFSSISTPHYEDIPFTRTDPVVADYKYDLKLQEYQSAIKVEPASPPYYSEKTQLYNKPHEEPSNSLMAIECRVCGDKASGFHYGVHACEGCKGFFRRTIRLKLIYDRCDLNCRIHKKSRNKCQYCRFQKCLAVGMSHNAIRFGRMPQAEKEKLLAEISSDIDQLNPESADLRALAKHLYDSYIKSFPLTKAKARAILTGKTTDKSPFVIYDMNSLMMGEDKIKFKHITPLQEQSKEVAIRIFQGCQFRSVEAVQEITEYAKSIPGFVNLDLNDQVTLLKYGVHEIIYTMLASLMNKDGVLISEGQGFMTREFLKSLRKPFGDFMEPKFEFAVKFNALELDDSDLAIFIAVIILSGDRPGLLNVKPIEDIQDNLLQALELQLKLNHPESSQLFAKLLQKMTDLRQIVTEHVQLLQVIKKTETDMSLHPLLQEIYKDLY

[7] = molecular target: T3, Peroxisome proliferator-activated receptor delta (Homo sapiens) (UniProt Q03181); assay: Transactivation of Gal4-fused PPARbeta/delta ligand binding domain expressed in human HepG2 cells co-transfected with pFRLuc and pRL-CMV at 0.1 to 10 uM after 20 hrs by dual-luciferase reporter gene assay
T3 sequence (whole entry): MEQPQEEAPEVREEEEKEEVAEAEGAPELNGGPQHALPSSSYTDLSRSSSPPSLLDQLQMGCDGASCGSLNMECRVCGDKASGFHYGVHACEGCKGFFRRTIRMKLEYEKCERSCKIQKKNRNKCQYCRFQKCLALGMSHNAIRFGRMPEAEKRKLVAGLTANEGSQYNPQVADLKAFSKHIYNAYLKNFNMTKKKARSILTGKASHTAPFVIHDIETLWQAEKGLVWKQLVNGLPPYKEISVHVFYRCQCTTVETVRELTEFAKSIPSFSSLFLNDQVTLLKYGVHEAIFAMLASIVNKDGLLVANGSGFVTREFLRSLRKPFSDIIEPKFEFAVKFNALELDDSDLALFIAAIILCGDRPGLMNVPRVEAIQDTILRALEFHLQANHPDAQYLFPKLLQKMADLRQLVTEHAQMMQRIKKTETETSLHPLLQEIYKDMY

SMILES	IC50 [2]	Activity [4]	Activity [6]	Activity [7]	inhibition (HepG2 [1])	Activity (HepG2 [3])	inhibition (HepG2 [5])
CC1(C)CC[C@]2(C(=O)O[C@@H]3O[C@H](CO[C@@H]4O[C@H](CO)[C@@H](O)[C@H](O)[C@H]4O)[C@@H](O)[C@H](O)[C@H]3O)CC[C@]3(C)C(=CC[C@@H]4[C@@]5(C)CC[C@H](O[C@@H]6O[C@H](C(=O)O)[C@@H](O[C@@H]7O[C@@H](CO)[C@H](O)[C@H]7O)[C@H](O)[C@H]6O[C@@H]6O[C@H](CO[C@@H]7O[C@H](CO)[C@@H](O)[C@H](O)[C@H]7O)[C@@H](O)[C@H](O)[C@H]6O)C(C)(C)[C@@H]5CC[C@]43C)[C@@H]2C1 [ELATOSIDE L]	4.1 µM				Dose-dependent effect	Non-toxic	Dose-dependent effect
CC1(C)CC[C@]2(C(=O)O[C@@H]3O[C@H](CO)[C@@H](O)[C@H](O)[C@H]3O)CC[C@]3(C)C(=CC[C@@H]4[C@@]5(C)CC[C@H](O[C@@H]6O[C@H](C(=O)O)[C@@H](O[C@H]7O[C@@H](CO)[C@H](O)[C@H]7O)[C@H](O[C@@H]7O[C@H](CO)[C@@H](O)[C@H](O)[C@H]7O)[C@H]6O)C(C)(C)[C@@H]5CC[C@]43C)[C@@H]2C1 [STIPULEANOSIDE R2]						Non-toxic	
O=C(O)c1cc(/N=N/c2ccc(S(=O)(=O)Nc3ccccn3)cc2)ccc1O [SULFASALAZINE]	0.9 µM						
CC1(C)CC[C@]2(C(=O)O[C@@H]3O[C@H](CO)[C@@H](O)[C@H](O)[C@H]3O)CC[C@]3(C)C(=CC[C@@H]4[C@@]5(C)CC[C@H](O[C@@H]6O[C@H](C(=O)O)[C@@H](O[C@@H]7O[C@@H](CO)[C@H](O)[C@H]7O)[C@H](O)[C@H]6O[C@@H]6O[C@H](CO)[C@@H](O)[C@H](O)[C@H]6O)C(C)(C)[C@@H]5CC[C@]43C)[C@@H]2C1 [TARASAPONIN IV]						Non-toxic	

More lines, main results first:

IC50 [2]	Activity [4]	Activity [6]	Activity [7]	SMILES	inhibition (HepG2 [1])	Activity (HepG2 [3])	inhibition (HepG2 [5])
9.5 µM	inactive	Active	inactive	CC1(C)CC[C@]2(C(=O)O[C@@H]3O[C@H](CO)[C@@H](O)[C@H](O)[C@H]3O)CC[C@]3(C)C(=CC[C@@H]4[C@@]5(C)CC[C@H](O[C@@H]6O[C@H](C(=O)O)[C@@H](O)[C@H](O[C@@H]7O[C@H](CO)[C@@H](O)[C@H](O)[C@H]7O)[C@H]6O[C@@H]6OC[C@H](O)[C@H](O)[C@H]6O)C(C)(C)[C@@H]5CC[C@]43C)[C@@H]2C1	Dose-dependent effect	Non-toxic	Dose-dependent effect
	inactive	Active	inactive	COC(=O)[C@H]1O[C@@H](O[C@H]2CC[C@]3(C)[C@H]4CC=C5[C@@H]6CC(C)(C)CC[C@]6(C(=O)O[C@@H]6O[C@H](CO)[C@@H](O)[C@H](O)[C@H]6O)CC[C@@]5(C)[C@]4(C)CC[C@H]3C2(C)C)[C@H](O[C@@H]2OC[C@H](O)[C@H](O)[C@H]2O)[C@@H](O[C@@H]2O[C@H](CO)[C@@H](O)[C@H](O)[C@H]2O)[C@@H]1O		Non-toxic	
	inactive	Active	inactive	CC1(C)CC[C@]2(C(=O)O[C@@H]3O[C@H](CO)[C@@H](O)[C@H](O)[C@H]3O)CC[C@]3(C)C(=CC[C@@H]4[C@@]5(C)CC[C@H](O[C@@H]6O[C@H](C(=O)O)[C@@H](O)[C@H](O[C@@H]7O[C@H](CO)[C@H](O)[C@H](O)[C@H]7O)[C@H]6O[C@@H]6O[C@H](CO)[C@H](O)[C@H](O)[C@H]6O)C(C)(C)[C@@H]5CC[C@]43C)[C@@H]2C1 [ELATOSIDE D]		Non-toxic	
